Earlier results, collected in PubChem BioAssay AID1259409 (Chemical Carcinogenesis Research Information System (CCRIS), 2018).
“And” between values parts separate entries of the source, which are not always exact repeats. Equal values may be shown once.

Test system: rodent chemically induced tumor inhibition, incidence and multiplicity
Test: CCRIS tumor inhibitor studies
Conditions: Carcinogen: N-NITROBIS(2-OXOPROPYL)AMINE, 60559-38-4, Route [Inhibitor]: ORAL, Species: HAMSTER, Promoter: NONE USED

Compound: CC1=C(/C=C/C(C)=C/C=C/C(C)=C/C(=O)Nc2ccccc2)C(C)(C)CCC1
- tumour outcome (control, treated, inhibition, significance) (Dose [Inhibitor]: 0.5 OR 1.0 MMOL/KG DIET DAILY STARTING 1 WK AFTER CARCINOGEN TREATMENT AND CONTINUING THROUGH THE END OF THE STUDY (STUD, Strain/Sex: SYRIAN/FEMALE, Target Tissue: Type of Lesion: PANCREAS: DUCTULAR ADENOMA, Dose [Carcinogen]: 10 MG/KG BW ONCE): 5/23 (22%), 11/25 (44%), -100%, not significant
- tumour outcome (control, treated, inhibition, significance) (Dose [Inhibitor]: 0.5 OR 1.0 MMOL/KG DIET DAILY STARTING 1 WK AFTER CARCINOGEN TREATMENT AND CONTINUING THROUGH THE END OF THE STUDY (STUD, Strain/Sex: SYRIAN/FEMALE, Target Tissue: Type of Lesion: PANCREAS: DUCTULAR ADENOMA, Dose [Carcinogen]: 40 MG/KG BW ONCE): 12/20 (60%), 18/26 (69%), -15%, not significant
- tumour outcome (control, treated, inhibition, significance) (Dose [Inhibitor]: 0.5 OR 1.0 MMOL/KG DIET DAILY STARTING 1 WK AFTER CARCINOGEN TREATMENT AND CONTINUING THROUGH THE END OF THE STUDY (STUD, Strain/Sex: SYRIAN/FEMALE, Target Tissue: Type of Lesion: PANCREAS: DUCTULAR CARCINOMA, Dose [Carcinogen]: 10 MG/KG BW ONCE): 6/23 (27%), 2/25 (8%), 70%, not significant
- tumour outcome (control, treated, inhibition, significance) (Dose [Inhibitor]: 0.5 OR 1.0 MMOL/KG DIET DAILY STARTING 1 WK AFTER CARCINOGEN TREATMENT AND CONTINUING THROUGH THE END OF THE STUDY (STUD, Strain/Sex: SYRIAN/MALE, Target Tissue: Type of Lesion: LIVER: BENIGN TUMOR, Dose [Carcinogen]: 40 MG/KG BW ONCE): 4/20 (20%), 12/26 (46%), -130%, not significant and 5/24 (21%), 17/39 (44%), -110%, p<0.05
- tumour outcome (control, treated, inhibition, significance) (Dose [Inhibitor]: 0.5 OR 1.0 MMOL/KG DIET DAILY STARTING 1 WK AFTER CARCINOGEN TREATMENT AND CONTINUING THROUGH THE END OF THE STUDY (STUD, Strain/Sex: SYRIAN/MALE, Target Tissue: Type of Lesion: PANCREAS: DUCTULAR ADENOMA, Dose [Carcinogen]: 10 MG/KG BW ONCE): 3/22 (14%), 14/31 (45%), -221%, p<0.05
- tumour outcome (control, treated, inhibition, significance) (Dose [Inhibitor]: 0.5 OR 1.0 MMOL/KG DIET DAILY STARTING 1 WK AFTER CARCINOGEN TREATMENT AND CONTINUING THROUGH THE END OF THE STUDY (STUD, Strain/Sex: SYRIAN/MALE, Target Tissue: Type of Lesion: PANCREAS: DUCTULAR ADENOMA, Dose [Carcinogen]: 40 MG/KG BW ONCE): 8/24 (33%), 19/37 (51%), -55%, not significant
- tumour outcome (control, treated, inhibition, significance) (Dose [Inhibitor]: 0.5 OR 1.0 MMOL/KG DIET DAILY STARTING 1 WK AFTER CARCINOGEN TREATMENT AND CONTINUING THROUGH THE END OF THE STUDY (STUD, Strain/Sex: SYRIAN/MALE, Target Tissue: Type of Lesion: PANCREAS: DUCTULAR CARCINOMA, Dose [Carcinogen]: 10 MG/KG BW ONCE): 4/22 (18%), 3/31 (10%), 44%, not significant
- tumour outcome (control, treated, inhibition, significance) (Dose [Inhibitor]: 0.5 OR 1.0 MMOL/KG DIET DAILY STARTING 1 WK AFTER CARCINOGEN TREATMENT AND CONTINUING THROUGH THE END OF THE STUDY (STUD, Strain/Sex: SYRIAN/MALE, Target Tissue: Type of Lesion: PANCREAS: DUCTULAR CARCINOMA, Dose [Carcinogen]: 40 MG/KG BW ONCE): 5/24 (21%), 15/37 (40%), -90%, not significant
- tumour outcome (control, treated, inhibition, significance) (Dose [Inhibitor]: 0.5 OR 1 MMOL/KG DIET DAILY STARTING 1 WK AFTER CARCINOGEN TREATMENT AND CONTINUING THROUGH THE END OF THE STUDY (STUDY, Strain/Sex: SYRIAN/FEMALE, Target Tissue: Type of Lesion: PANCREAS: DUCTULAR CARCINOMA, Dose [Carcinogen]: 40 MG/KG BW ONCE): 6/20 (30%), 7/26 (27%), 10%, not significant
- tumour outcome (control, treated, inhibition, significance) (Dose [Inhibitor]: 0.5 OR 1.0 MMOL/KG/D IN DIET STARTING 1 WK AFTER CARCINOGEN TREATMENT AND CONTINUING THROUGH THE END OF THE STUDY (STUDY, Strain/Sex: SYRIAN/FEMALE, Target Tissue: Type of Lesion: LIVER: BENIGN TUMOR, Dose [Carcinogen]: 40 MG/KG BW ONCE): 4/20 (20%), 12/26 (46%), -130%, not significant
- tumour outcome (control, treated, inhibition, significance) (Dose [Inhibitor]: 0.5 OR 1.0 MMOL/KG/D IN DIET STARTING 1 WK AFTER CARCINOGEN TREATMENT AND CONTINUING THROUGH THE END OF THE STUDY (STUDY, Strain/Sex: SYRIAN/FEMALE, Target Tissue: Type of Lesion: PANCREAS: DUCTULAR ADENOMA, Dose [Carcinogen]: 10 MG/KG BW ONCE): 5/23 (22%), 11/25 (44%), -100%, not significant
- tumour outcome (control, treated, inhibition, significance) (Dose [Inhibitor]: 0.5 OR 1.0 MMOL/KG/D IN DIET STARTING 1 WK AFTER CARCINOGEN TREATMENT AND CONTINUING THROUGH THE END OF THE STUDY (STUDY, Strain/Sex: SYRIAN/FEMALE, Target Tissue: Type of Lesion: PANCREAS: DUCTULAR ADENOMA, Dose [Carcinogen]: 40 MG/KG BW ONCE): 12/20 (60%), 18/26 (69%), -15%, not significant
- tumour outcome (control, treated, inhibition, significance) (Dose [Inhibitor]: 0.5 OR 1.0 MMOL/KG/D IN DIET STARTING 1 WK AFTER CARCINOGEN TREATMENT AND CONTINUING THROUGH THE END OF THE STUDY (STUDY, Strain/Sex: SYRIAN/FEMALE, Target Tissue: Type of Lesion: PANCREAS: DUCTULAR CARCINOMA, Dose [Carcinogen]: 10 MG/KG BW ONCE): 6/23 (27%), 2/25 (8%), 70%, not significant
- tumour outcome (control, treated, inhibition, significance) (Dose [Inhibitor]: 0.5 OR 1.0 MMOL/KG/D IN DIET STARTING 1 WK AFTER CARCINOGEN TREATMENT AND CONTINUING THROUGH THE END OF THE STUDY (STUDY, Strain/Sex: SYRIAN/FEMALE, Target Tissue: Type of Lesion: PANCREAS: DUCTULAR CARCINOMA, Dose [Carcinogen]: 40 MG/KG BW ONCE): 6/20 (30%), 7/26 (27%), 10%, not significant
- tumour outcome (control, treated, inhibition, significance) (Dose [Inhibitor]: 0.5 OR 1.0 MMOL/KG/D IN DIET STARTING 1 WK AFTER CARCINOGEN TREATMENT AND CONTINUING THROUGH THE END OF THE STUDY (STUDY, Strain/Sex: SYRIAN/MALE, Target Tissue: Type of Lesion: LIVER: BENIGN TUMOR, Dose [Carcinogen]: 40 MG/KG BW ONCE): 5/24 (21%), 17/39 (44%), -110%, p<0.05
- tumour outcome (control, treated, inhibition, significance) (Dose [Inhibitor]: 0.5 OR 1.0 MMOL/KG/D IN DIET STARTING 1 WK AFTER CARCINOGEN TREATMENT AND CONTINUING THROUGH THE END OF THE STUDY (STUDY, Strain/Sex: SYRIAN/MALE, Target Tissue: Type of Lesion: PANCREAS: DUCTULAR ADENOMA, Dose [Carcinogen]: 10 MG/KG BW ONCE): 3/22 (14%), 14/31 (45%), -221%, p<0.05
- tumour outcome (control, treated, inhibition, significance) (Dose [Inhibitor]: 0.5 OR 1.0 MMOL/KG/D IN DIET STARTING 1 WK AFTER CARCINOGEN TREATMENT AND CONTINUING THROUGH THE END OF THE STUDY (STUDY, Strain/Sex: SYRIAN/MALE, Target Tissue: Type of Lesion: PANCREAS: DUCTULAR ADENOMA, Dose [Carcinogen]: 40 MG/KG BW ONCE): 8/24 (33%), 19/37 (51%), -55%, not significant
- tumour outcome (control, treated, inhibition, significance) (Dose [Inhibitor]: 0.5 OR 1.0 MMOL/KG/D IN DIET STARTING 1 WK AFTER CARCINOGEN TREATMENT AND CONTINUING THROUGH THE END OF THE STUDY (STUDY, Strain/Sex: SYRIAN/MALE, Target Tissue: Type of Lesion: PANCREAS: DUCTULAR CARCINOMA, Dose [Carcinogen]: 10 MG/KG BW ONCE): 4/22 (18%), 3/31 (10%), 44%, not significant
- tumour outcome (control, treated, inhibition, significance) (Dose [Inhibitor]: 0.5 OR 1.0 MMOL/KG/D IN DIET STARTING 1 WK AFTER CARCINOGEN TREATMENT AND CONTINUING THROUGH THE END OF THE STUDY (STUDY, Strain/Sex: SYRIAN/MALE, Target Tissue: Type of Lesion: PANCREAS: DUCTULAR CARCINOMA, Dose [Carcinogen]: 40 MG/KG BW ONCE): 5/24 (21%), 15/37 (40%), -90%, not significant
